These results are taken from ChEMBL document CHEMBL3124886, “Potent Hepatitis C Virus NS5A Inhibitors Containing a Benzidine Core” (ACS Med Chem Lett, 2014).

pEC50: −log10 of the molar value. Where only a bound is given, the exact number is not on record here.

Data set [1] has as its system Hepatitis C virus. The data set can be described thus: Antiviral activity against Hepatitis C virus type 2a expressing JFH1 assessed as inhibition of infection in human Huh7.5.1 cells after 3 days by luciferase reporter gene assay. The format is functional, organism-based, Hepacivirus hominis. To be noted: genotype 2a, Huh-7, 72 h. In general terms: Reporter assays use an easily measured gene product as a stand-in for the process of interest.

Data set [2] in a line: Selectivity index, ratio of cytotoxicity for human Huh7.5.1 cells to EC50 for Hepatitis C virus genotype 1b. The format is toxicity, cell-based, Huh-7. To be noted: read-out: Selectivity Index.
Data set [3] in a line: Selectivity index, ratio of cytotoxicity for human Huh7.5.1 cells to EC50 for Hepatitis C virus type 2a. It counts as toxicity, cell-based, Huh-7. To be noted: read-out: Selectivity Index.
For data set [4], the system named is Hepatitis C virus. The data set can be described thus: Antiviral activity against Hepatitis C virus genotype 1b expressed in human Huh7.5.1 cells coexpressing NKR2AN after 3 days by luciferase reporter gene assay. To be noted: Huh-7, 72 h. The format is functional, organism-based, Hepacivirus hominis.
Data set [5] can be described thus: Cytotoxicity against human Huh7.5.1 cells. It counts as cell-based. Conditions: huh-7.
For a further data set, the target named is CYP3A4 (Homo sapiens, UniProt P08684). Description: Inhibition of CYP3A4 (unknown origin) at 10 uM relative to control. The format is ADME.
Sequence of CYP3A4 (P08684 whole entry): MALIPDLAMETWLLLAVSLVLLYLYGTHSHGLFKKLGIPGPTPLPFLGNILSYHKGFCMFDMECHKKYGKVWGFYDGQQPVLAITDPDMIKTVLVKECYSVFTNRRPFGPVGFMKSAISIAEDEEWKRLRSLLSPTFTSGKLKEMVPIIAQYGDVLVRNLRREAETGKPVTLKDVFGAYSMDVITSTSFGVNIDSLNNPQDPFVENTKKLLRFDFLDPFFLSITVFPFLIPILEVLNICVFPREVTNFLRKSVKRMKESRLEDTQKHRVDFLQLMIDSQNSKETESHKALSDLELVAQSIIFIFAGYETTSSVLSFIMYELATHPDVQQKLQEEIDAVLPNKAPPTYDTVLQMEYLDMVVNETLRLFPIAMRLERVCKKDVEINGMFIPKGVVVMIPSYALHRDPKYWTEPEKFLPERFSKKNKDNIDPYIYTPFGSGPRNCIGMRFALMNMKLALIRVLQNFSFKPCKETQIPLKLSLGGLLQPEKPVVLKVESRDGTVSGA
Data set [6] is described as follows: Metabolic stability in rat plasma assessed as compound remaining at 2 uM after 1 hr. It counts as ADME, cell-free. To be noted: read-out: Stability.
Data set [7] can be described thus: Metabolic stability in rat plasma assessed as compound remaining at 2 uM after 0.5 hrs. To be noted: read-out: Stability. The format is ADME, cell-free.
The target of another data set is T1, CYP1A2 (Homo sapiens, UniProt P05177).
T1 sequence (P05177 whole entry): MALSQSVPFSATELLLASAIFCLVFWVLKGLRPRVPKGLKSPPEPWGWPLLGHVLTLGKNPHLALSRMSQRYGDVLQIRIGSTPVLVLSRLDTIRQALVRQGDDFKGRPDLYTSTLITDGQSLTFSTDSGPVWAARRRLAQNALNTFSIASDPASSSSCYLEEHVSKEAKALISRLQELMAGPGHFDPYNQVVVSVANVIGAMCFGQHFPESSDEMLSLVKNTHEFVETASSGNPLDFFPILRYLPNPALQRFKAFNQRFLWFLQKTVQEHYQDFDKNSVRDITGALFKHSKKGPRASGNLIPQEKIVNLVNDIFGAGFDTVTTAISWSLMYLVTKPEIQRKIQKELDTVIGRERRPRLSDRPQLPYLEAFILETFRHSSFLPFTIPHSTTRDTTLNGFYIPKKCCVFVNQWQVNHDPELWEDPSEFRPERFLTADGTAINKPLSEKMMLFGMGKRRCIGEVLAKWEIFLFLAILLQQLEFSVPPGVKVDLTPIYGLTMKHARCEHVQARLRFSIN
The data set can be described thus: Inhibition of CYP1A2 (unknown origin) at 10 uM relative to control. The format is ADME.

Data set [8] addresses Voltage-gated inwardly rectifying potassium channel KCNH2 (Homo sapiens, UniProt Q12809). The data set can be described thus: Binding affinity to human ERG by fluorescence polarization assay. In general terms: Fluorescence polarisation rises when a labelled molecule tumbles more slowly, as on binding a larger partner.
Data set [9] is described as follows: Metabolic stability in rat plasma assessed as compound remaining at 2 uM after 4 hrs. It counts as ADME, cell-free. Conditions: read-out: Stability.
The next data set addresses CYP2D6 (Homo sapiens, UniProt P10635). The data set can be described thus: Inhibition of CYP2D6 (unknown origin) at 10 uM relative to control. It counts as ADME.
The next data set addresses CYP2C9 (Homo sapiens, UniProt P11712). Description: Inhibition of CYP2C9 (unknown origin) at 10 uM relative to control. The format is ADME.

Sequence of CYP2C9 (P11712 whole entry): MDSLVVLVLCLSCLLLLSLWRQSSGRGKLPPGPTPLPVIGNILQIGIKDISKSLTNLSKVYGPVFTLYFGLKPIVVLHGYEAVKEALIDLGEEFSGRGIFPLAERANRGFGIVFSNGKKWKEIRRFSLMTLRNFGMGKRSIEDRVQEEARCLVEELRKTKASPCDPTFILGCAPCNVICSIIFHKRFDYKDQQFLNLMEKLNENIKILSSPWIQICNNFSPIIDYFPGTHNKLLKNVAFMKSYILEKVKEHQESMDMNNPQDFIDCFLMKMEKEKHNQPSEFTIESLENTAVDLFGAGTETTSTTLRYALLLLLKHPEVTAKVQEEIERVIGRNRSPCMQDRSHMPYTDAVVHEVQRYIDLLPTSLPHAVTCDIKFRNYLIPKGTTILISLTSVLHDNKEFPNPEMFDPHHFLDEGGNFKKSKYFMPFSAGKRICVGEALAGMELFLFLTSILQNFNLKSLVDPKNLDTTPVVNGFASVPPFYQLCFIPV
Sequence of CYP2D6 (P10635 whole entry): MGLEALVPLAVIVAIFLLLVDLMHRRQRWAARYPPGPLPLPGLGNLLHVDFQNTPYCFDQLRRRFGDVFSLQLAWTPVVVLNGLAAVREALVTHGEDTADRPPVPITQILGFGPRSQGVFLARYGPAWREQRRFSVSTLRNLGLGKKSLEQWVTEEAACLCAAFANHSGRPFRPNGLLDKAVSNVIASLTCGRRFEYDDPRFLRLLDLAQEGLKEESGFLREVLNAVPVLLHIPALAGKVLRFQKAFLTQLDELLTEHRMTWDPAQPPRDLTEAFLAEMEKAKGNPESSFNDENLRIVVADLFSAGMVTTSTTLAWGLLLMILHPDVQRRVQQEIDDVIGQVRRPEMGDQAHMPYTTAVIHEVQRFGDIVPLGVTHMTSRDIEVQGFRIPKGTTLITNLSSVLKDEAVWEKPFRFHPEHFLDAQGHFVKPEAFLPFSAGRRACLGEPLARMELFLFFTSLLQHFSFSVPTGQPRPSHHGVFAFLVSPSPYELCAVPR
Sequence of Voltage-gated inwardly rectifying potassium channel KCNH2 (Q12809 whole entry): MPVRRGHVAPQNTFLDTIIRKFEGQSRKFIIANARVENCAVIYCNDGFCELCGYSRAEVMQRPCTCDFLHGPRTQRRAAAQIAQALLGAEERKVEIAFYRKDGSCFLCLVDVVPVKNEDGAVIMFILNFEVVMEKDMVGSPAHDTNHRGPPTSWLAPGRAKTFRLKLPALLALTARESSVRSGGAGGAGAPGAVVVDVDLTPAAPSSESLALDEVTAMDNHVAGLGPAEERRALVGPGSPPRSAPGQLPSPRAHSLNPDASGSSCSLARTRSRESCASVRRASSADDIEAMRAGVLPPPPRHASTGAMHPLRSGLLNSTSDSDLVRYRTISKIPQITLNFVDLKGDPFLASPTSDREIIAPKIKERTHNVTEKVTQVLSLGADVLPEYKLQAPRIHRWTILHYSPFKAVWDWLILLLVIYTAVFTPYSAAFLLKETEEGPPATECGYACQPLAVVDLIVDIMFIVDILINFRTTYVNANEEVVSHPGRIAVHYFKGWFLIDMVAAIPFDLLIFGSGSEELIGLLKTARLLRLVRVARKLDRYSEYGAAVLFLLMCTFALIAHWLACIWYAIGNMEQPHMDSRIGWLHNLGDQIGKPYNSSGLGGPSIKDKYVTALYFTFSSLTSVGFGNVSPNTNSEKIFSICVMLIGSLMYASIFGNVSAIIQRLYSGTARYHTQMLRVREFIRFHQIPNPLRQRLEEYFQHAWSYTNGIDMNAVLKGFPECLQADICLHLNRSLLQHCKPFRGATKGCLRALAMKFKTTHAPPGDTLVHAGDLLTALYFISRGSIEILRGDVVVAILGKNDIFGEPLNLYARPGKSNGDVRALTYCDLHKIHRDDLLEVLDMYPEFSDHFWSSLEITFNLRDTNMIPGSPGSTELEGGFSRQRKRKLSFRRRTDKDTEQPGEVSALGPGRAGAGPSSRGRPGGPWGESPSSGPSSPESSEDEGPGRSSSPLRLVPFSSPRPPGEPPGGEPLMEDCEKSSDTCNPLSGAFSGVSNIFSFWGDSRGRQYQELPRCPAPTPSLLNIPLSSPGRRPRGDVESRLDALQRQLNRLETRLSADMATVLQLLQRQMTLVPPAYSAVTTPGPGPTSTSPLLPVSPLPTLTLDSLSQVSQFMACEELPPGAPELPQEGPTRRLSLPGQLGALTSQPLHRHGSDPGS

One may read the pEC50 as −log10 of the EC50, conventionally taken in molar units. As to `COC(=O)N[C@@H](C)C(=O)N1CCC[C@H]1C(=O)Nc1ccc(-c2ccc(NC(=O)[C@@H]3CCCN3C(=O)[C@H](C)NC(=O)OC)cc2)cc1`, the pEC50 in the data set on Hepatitis C virus [1] is under 6.00.
Turning to `CN(C)[C@@H](C(=O)N1CCC[C@H]1C(=O)Nc1ccc(-c2ccc(NC(=O)[C@@H]3CCCN3C(=O)[C@@H](c3ccccc3)N(C)C)cc2)cc1)c1ccccc1`, the selectivity ratio in [2] is over 58000; in data set [3], over 11000. Further, the values for the pEC50 in the data set with Hepatitis C virus [1] and in the data set with Hepatitis C virus [4] were 8.64 and 9.37, respectively. Further, in data set [5], the Activity is over 25 µM.
Broadly, the inhibition is the relative decrease from the control value, in per cent. Read a high inhibition as a strong effect. For `COC(=O)N[C@@H](C(=O)N1CCC[C@H]1C(=O)Nc1ccc(-c2ccc(NC(=O)[C@@H]3CCCN3C(=O)[C@H](NC(=O)OC)c3ccccc3)cc2)cc1)c1ccccc1`, the inhibition at 10 µM at CYP3A4 was determined as 23.9%; on CYP1A2, 18.1%; at CYP2D6, 0%; against CYP2C9, 0%. The results for the selectivity ratio in data set [2] and in data set [3] were over 893000 and over 96000, respectively. Moreover, the remaining at 1 h, 2 µM in data set [6] was over 99%. Moreover, in data set [7], the remaining at 0.5 h, 2 µM was over 99%. In addition, the pEC50 in the data set on Hepatitis C virus [1] is 9.59; in the data set on Hepatitis C virus [4] it was 10.55; in data set [8], 5.01. Moreover, in data set [9], the remaining at 4 h, 2 µM was over 99%. In [5], this molecule had an Activity of over 25 µM.
On to `COC(=O)N[C@H](C(=O)N1CCC[C@H]1C(=O)Nc1ccc(-c2ccc(NC(=O)[C@@H]3CCCN3C(=O)[C@@H](NC(=O)OC)C(C)(C)C)cc2)cc1)C(C)(C)C`, for which the pEC50 in the data set on Hepatitis C virus [1] was 7.62.
The same measure, in the same setting: for `COC(=O)N[C@H](C(=O)N1CCC[C@H]1C(=O)Nc1ccc(-c2ccc(NC(=O)[C@@H]3CCCN3C(=O)[C@@H](NC(=O)OC)C(C)C)cc2)cc1)C(C)C` the value was 6.92; for `COC(=O)N[C@@H](C(=O)N1CCC[C@H]1C(=O)Nc1ccc(-c2ccc(NC(=O)[C@@H]3CCCN3C(=O)[C@H](NC(=O)OC)C(C)C)cc2)cc1)C(C)C`, 7.82.
`O=c1cc(-c2ccccc2)oc2c1ccc1ccccc12` [ALPHA-NAPHTHOFLAVONE] registered an inhibition at 10 µM on CYP1A2 of 98.6%.
The molecule `Nc1ccc(S(=O)(=O)Nc2ccnn2-c2ccccc2)cc1` [SULFAPHENAZOLE] showed an inhibition at 10 µM at CYP2C9 of 75.8%.
Take `CCN(CC)[C@@H](C(=O)N1CCC[C@H]1C(=O)Nc1ccc(-c2ccc(NC(=O)[C@@H]3CCCN3C(=O)[C@@H](c3ccccc3)N(CC)CC)cc2)cc1)c1ccccc1`: the results for the selectivity ratio in data set [2] and in data set [3] were over 93000 and over 11000, respectively. Besides, the results for the pEC50 with Hepatitis C virus [1] and with Hepatitis C virus [4] were 8.66 and 9.57, respectively. In data set [5], this molecule displayed an Activity of over 25 µM.
Take `O=C(Nc1ccc(-c2ccc(NC(=O)[C@@H]3CCCN3C(=O)[C@H]3CCCO3)cc2)cc1)[C@@H]1CCCN1C(=O)[C@H]1CCCO1`: the pEC50 in the data set on Hepatitis C virus [1] was 6.40.
`CC(=O)N1CCN(c2ccc(OCC3COC(Cn4ccnc4)(c4ccc(Cl)cc4Cl)O3)cc2)CC1` (racemic) [KETOCONAZOLE] displayed an inhibition at 10 µM at CYP3A4 of 95.3%.
On to `C=C[C@H]1C[N@@]2CC[C@H]1C[C@@H]2[C@@H](O)c1ccnc2ccc(OC)cc12` [QUINIDINE], for which 10 µM produced 95.1% inhibition at CYP2D6.
